Assay results published in PMC9570413, “A New Phospholipase D from Moritella sp. JT01: Biochemical Characterization, Crystallization and Application in the Synthesis of Phosphatidic Acid” (International Journal of Molecular Sciences, 2022).

Molecular target: T1, MsPLD (phospholipase D from Moritella sp. JT01) (Moritella sp. JT01, UniProt A0A137SLD1)
T1 construct: gene AKG98_3441; precursor 578 residues; C-terminal 6xHis (pET-21a); E. coli SHuffle T7; about 62 kDa
T1 sequence (A0A137SLD1 29-578): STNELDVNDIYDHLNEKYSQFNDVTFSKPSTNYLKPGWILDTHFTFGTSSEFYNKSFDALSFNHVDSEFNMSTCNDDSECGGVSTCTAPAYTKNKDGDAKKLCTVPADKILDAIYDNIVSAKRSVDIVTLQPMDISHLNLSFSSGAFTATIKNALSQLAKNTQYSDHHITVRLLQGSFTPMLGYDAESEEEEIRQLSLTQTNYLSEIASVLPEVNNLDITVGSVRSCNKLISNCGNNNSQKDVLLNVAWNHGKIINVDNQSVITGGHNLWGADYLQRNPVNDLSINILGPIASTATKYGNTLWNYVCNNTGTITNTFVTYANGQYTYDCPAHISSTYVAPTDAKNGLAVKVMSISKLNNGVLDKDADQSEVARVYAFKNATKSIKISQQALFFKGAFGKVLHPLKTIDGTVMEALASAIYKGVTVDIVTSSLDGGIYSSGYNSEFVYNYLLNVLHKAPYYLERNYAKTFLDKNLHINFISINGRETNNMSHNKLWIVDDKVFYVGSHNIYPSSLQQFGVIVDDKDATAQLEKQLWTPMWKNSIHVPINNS
Test: enzyme-linked colorimetry (choline oxidase/peroxidase), Michaelis-Menten
Format: biochemical
Settings: 0.1 M Tris-HCl pH 8.0, 35 °C, SDS and Triton X-100 in assay mixture; 0.5-8.0 mM PC; natural soybean PC, acyl chains not defined (class of species, no single structure)
Experimental: enzyme-linked colorimetry (choline oxidase/peroxidase), Michaelis-Menten on MsPLD (phospholipase D from Moritella sp. JT01) | the kinetic parameters of MsPLD to soy PC were determined

With L-α-phosphatidylcholine from soybean the Km was 3.44 ± 0.81 mM.
